The values below come from BindingDB's records for patent US20250034122 (Mission Therapeutics, 2025).

Molecules are shown by their SMILES. pIC50: −log10 of the molar value.

This assay has as its target T1, Ubiquitin carboxyl-terminal hydrolase 30 (Homo sapiens, UniProt Q70CQ3).
T1 sequence (Q70CQ3 whole entry): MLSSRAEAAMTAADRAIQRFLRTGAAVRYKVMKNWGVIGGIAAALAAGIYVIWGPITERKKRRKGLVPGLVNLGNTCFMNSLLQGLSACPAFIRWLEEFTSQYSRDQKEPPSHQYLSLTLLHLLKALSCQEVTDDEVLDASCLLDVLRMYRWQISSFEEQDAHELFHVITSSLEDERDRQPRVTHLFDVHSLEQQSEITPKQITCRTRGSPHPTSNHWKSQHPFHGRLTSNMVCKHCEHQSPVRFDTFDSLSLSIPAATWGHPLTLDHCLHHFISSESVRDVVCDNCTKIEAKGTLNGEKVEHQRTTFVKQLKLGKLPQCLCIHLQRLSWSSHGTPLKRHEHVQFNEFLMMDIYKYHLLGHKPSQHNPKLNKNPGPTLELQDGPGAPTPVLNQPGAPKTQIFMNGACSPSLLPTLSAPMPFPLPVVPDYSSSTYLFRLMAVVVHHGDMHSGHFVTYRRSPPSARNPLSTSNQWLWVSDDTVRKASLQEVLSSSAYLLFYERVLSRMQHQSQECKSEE
In words: USP30 Biochemical IC50 Assay. Here is the method: A typical 8-point dilution series would be 100, 30, 10, 3, 1, 0.3, 0.1, 0.03 μM final.

Turning to `N#CN1C[C@H](NC(=O)C2NC(c3cccc(C(F)(F)F)c3)=CO2)C[C@H]1Cn1cccn1` (stereo partly specified) [US20250034122, Example 30], the pIC50 is 7.96.
